pIC50: −log10 of the molar value.
Tests used:
OVCAR3 cells = test: Cell proliferation activity test, OVCAR3 (CyQUANT Direct); format: cell-based; settings: Homo sapiens, OVCAR-3, 72 h, 3 days incubation, CyQUANT fluorescence detection, read-out: OVCAR-3 Cell Viability_IC50_nM
Protocol: Materials and Cells: OVCAR3 cells were purchased from Nanjing Cobioer Biosciences Co., Ltd. RPMI-1640 medium, fetal bovine serum, and the CyQUANT Direct Cell Proliferation Assay kit were purchased from Thermo Fisher Scientific, USA; 96-well cell culture plates were sourced from Corning, USA.
Cell Culture: Culture OVCAR3 cells with RPMI-1640 medium containing […] and incubate them in a […] incubator at 37° C. Only cells in the logarithmic growth phase can be used for the test.
Inoculate OVCAR3 cells into a 96-well cell culture plate at 90 μL per well and incubate overnight in a […] incubator at 37° C. Dissolve the compound powder in DMSO to prepare a stock solution of 10 mM. Then perform gradient dilution for the compounds in the microplate to achieve a final concentration of 0-10 μM. Add 10 μL of cell culture medium containing compounds to each well to make the final DMSO content 0.20%. Incubate the cell plates in a […] incubator at 37° C. for 3 days. Add 100 μL of CyQUANT detection reagent to each well, react at 37° C. for 60 min, and perform fluorescence detection using the PerkinElmer Envision.

[1] = biological target: T1, Human KIF18A (amino acid sequence 1-417) (Homo sapiens, UniProt Q8NI77); test: Enzyme activity detection experiment (ADP-Glo, KIF18A with tubulin and ATP); format: biochemical; settings: tubulin 60 μg/mL, ATP 25 μM, KIF18A protein 2.5 nM, 120 minutes at ambient temperature, ADP-Glo chemiluminescence
T1 construct: purchased Viva Biotech (Shanghai) Ltd
T1 sequence (Q8NI77 1-417): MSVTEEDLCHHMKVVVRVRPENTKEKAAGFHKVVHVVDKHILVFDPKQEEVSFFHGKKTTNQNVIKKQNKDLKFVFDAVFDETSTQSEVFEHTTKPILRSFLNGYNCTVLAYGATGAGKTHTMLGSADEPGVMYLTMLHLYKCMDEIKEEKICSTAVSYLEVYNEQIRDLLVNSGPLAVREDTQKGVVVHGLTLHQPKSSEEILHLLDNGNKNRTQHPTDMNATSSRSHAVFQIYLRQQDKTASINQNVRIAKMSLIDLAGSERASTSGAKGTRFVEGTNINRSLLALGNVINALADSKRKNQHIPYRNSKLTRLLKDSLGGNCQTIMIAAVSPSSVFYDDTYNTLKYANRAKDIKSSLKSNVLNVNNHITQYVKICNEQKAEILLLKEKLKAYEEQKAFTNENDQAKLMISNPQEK
T1 sequence (Q2XVP4 whole entry partner): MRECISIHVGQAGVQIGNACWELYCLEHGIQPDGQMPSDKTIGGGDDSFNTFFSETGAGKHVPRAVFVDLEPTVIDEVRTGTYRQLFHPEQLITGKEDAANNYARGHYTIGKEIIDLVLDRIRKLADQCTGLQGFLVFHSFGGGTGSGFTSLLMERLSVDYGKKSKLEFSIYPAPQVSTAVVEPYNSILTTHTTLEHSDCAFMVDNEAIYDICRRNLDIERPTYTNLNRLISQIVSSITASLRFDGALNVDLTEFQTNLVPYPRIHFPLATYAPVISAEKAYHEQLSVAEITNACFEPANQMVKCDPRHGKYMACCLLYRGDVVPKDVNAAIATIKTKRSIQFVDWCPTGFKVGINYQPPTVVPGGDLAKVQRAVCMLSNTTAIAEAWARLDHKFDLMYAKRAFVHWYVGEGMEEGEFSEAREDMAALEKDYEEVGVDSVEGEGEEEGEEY
T1 sequence (P02554 whole entry partner): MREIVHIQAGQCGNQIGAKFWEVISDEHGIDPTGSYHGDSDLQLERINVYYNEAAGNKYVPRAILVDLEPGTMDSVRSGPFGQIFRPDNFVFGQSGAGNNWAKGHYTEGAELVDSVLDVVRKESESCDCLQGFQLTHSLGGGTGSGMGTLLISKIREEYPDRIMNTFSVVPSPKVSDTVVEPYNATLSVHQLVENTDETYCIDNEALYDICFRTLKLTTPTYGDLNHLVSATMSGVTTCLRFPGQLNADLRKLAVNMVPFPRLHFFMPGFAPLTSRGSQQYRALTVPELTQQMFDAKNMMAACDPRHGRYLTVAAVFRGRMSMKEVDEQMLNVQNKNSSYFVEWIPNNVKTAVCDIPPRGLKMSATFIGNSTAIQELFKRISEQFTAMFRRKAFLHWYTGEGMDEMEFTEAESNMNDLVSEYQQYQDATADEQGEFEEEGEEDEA
Protocol: Materials: Human KIF18A (amino acid sequence 1-417) was obtained from Viva Biotech (Shanghai) Ltd., and the ADP-Glo™ protein kinase kit was acquired from Promega, USA. Tubulin was sourced from Cytoskeleton, USA, while a 384-well assay plate and the Envision multifunctional microplate reader were obtained from PerkinElmer, USA.
Enzyme activity detection: The compound powder in DMSO was firstly dissolved to prepare a 10 mM stock solution. Next, gradient dilutions were prepared in the microplate to achieve final concentrations of […]. Sequentially, 2.5 μL of tubulin (60 μg/mL), the compound, ATP (25 μM), and KIF18A protein (2.5 nM) were added to each well, and the reaction was incubated at ambient temperature for 120 minutes. After the reaction, 10 μL of ADP-Glo™ reagent was added to each well and incubated at ambient temperature for 30 minutes. Subsequently, 20 μL of detection reagent was added to each well and incubated for an additional 30 minutes in the dark. Finally, chemiluminescence detection was performed using the PerkinElmer Envision multifunctional microplate reader.

HT29 cells = test: CyQuant cell proliferation activity test, HT29; format: cell-based; settings: Homo sapiens, HT-29, 72 h, HT29 2000 cells per well, 3 days incubation, initial concentration 3000 nM, IC50 by XLFIT, read-out: HT-29 Cell Viability_IC50_nM
Protocol: Materials and Cells: HT29 cells were purchased from Nanjing Cobioer Biosciences Co., Ltd.; RPM-1640 medium, fetal bovine serum, Trypsin-EDTA (0.25%), DMSO, 96-well plates, and CyQuant reagents were purchased from ThermoFisher (USA).
Cell Culture: Culture HT29 cells with RPMI-1640 containing 10% fetal bovine serum under the condition of 37° C. and 5% CO2. Only cells in the logarithmic growth phase can be used for the test.
Cell Proliferation Activity Test: Use the CyQuant reagent to detect the proliferation inhibitory activity of compounds on HT29 cells. Adjust the cell density and inoculate 100 μL per well into the 96-well plate (HT29 at 2000 cells per well), then incubate overnight under the condition of 37° C. and […]. Add compounds of various target concentrations (initial concentration of 3000 nM, 3-fold dilution, 9 concentration gradients), and make the DMSO content 0.20%. Incubate the cell plates at 37° C. and 5% CO2 for 3 days. Incubate with CyQuant reagent for 1 h, read the plate by Envision, and calculate IC50 using XLFIT.

pIC50 (OVCAR3 cells)	pIC50 [1]	pIC50 (HT29 cells)	SMILES
5.79	7.17	< 5.52	O=S(=O)(CCO)Nc1ccc(-c2nnc(-c3cc(O)nc(N4CCC(F)(F)CC4)n3)o2)c(N2CCC3(CC2)CC3)c1 [Example 21, N-(4-(5-(2-(4,4-difluoropiperidin-1-yl)-6-hydroxypyrimidin-4-yl)-1,3,4-oxadiazol-2-yl)-3-(6-azaspiro[2.5]octan-6-yl)phenyl)-2-hydroxyethane-1-sulfonamide]
7.80	7.29	7.70	Cc1cc(-c2nnc(-c3ccc(NS(=O)(=O)CCO)cc3N3CCC4(CC3)CC4)o2)cc(N2CCC(F)(F)CC2)n1 [Example 24, N-(4-(5-(2-(4,4-difluoropiperidin-1-yl)-6-methylpyridin-4-yl)-1,3,4-oxadiazol-2-yl)-3-(6-azaspiro[2.5]octan-6-yl)phenyl)-2-hydroxyethane-1-sulfonamide]
7.04	7.34	6.91	Cc1cc(-c2nnc(-c3ccc(NS(=O)(=O)CCO)cc3N3CCC4(CC3)CC4)o2)nc(N2CCC(F)(F)CC2)c1 [Example 25, N-(4-(5-(6-(4,4-difluoropiperidin-1-yl)-4-methylpyridin-2-yl)-1,3,4-oxadiazol-2-yl)-3-(6-azaspiro[2.5]octan-6-yl)phenyl)-2-hydroxyethane-1-sulfonamide]
6.06	6.91	4.61	Cc1cc(N2CCC(F)(F)CC2)nc(-c2nnc(-c3ccc(NS(=O)(=O)CCO)cc3N3CCC4(CC3)CC4)o2)n1 [Example 27, N-(4-(5-(4-(4,4-difluoropiperidin-1-yl)-6-methylpyrimidin-2-yl)-1,3,4-oxadiazol-2-yl)-3-(6-azaspiro[2.5]octan-6-yl)phenyl)-2-hydroxyethanesulfonamide]
7.80	6.79	7.96	Cn1cc(-c2ccc(-c3nnc(-c4ccc(NS(=O)(=O)CCO)cc4N4CCC5(CC4)CC5)o3)nc2N2CCC(F)(F)CC2)cn1 [Example 31, N-(4-(5-(6-(4,4-difluoropiperidin-1-yl)-5-(1-methyl-1H-pyrazol-4-yl)pyridin-2-yl)-1,3,4-oxadiazol-2-yl)-3-(6-azaspiro[2.5]octan-6-yl)phenyl)-2-hydroxyethane-1-sulfonamide]
7.92	7.25	7.82	Cc1cc(-c2cn(-c3ccc(NS(=O)(=O)CCO)cc3N3CCC4(CC3)CC4)nn2)nc(N2CCC(F)(F)CC2)n1 [Example 34, N-(4-(4-(2-(4,4-difluoropiperidin-1-yl)-6-methylpyrimidin-4-yl)-1H-1,2,3-triazol-1-yl)-3-(6-azaspiro[2.5]octan-6-yl)phenyl)-2-hydroxyethanesulfonamide]
7.64	7.38	7.68	Cc1cc(-c2cn(-c3ccc(NS(=O)(=O)CCO)cc3N3CCC4(CC3)CC4)nn2)nc(C2=CCOCC2)n1 [Example 35, N-(4-(4-(2-(3,6-dihydro-2H-pyran-4-yl)-6-methylpyrimidin-4-yl)-1H-1,2,3-triazol-1-yl)-3-(6-azaspiro[2.5]octan-6-yl)phenyl)-2-hydroxyethane-1-sulfonamide]
7.52	7.30	7.41	Cc1cc(-c2cn(-c3ccc(NS(=O)(=O)CCO)cc3N3CCC4(CC3)CC4)nn2)nc(C2CCOCC2)n1 [Example 36, 2-hydroxy-N-(4-(4-(6-methyl-2-(tetrahydro-2H-pyran-4-yl)pyrimidin-4-yl)-1H-1,2,3-triazol-1-yl)-3-(6-azaspiro[2.5]octan-6-yl)phenyl)ethane-1-sulfonamide]
7.06	6.60	6.79	Cc1cc(-c2cn(-c3ccc(NS(=O)(=O)CCO)cc3N3CCC4(CC3)CC4)nn2)nc(C2=CCC(F)(F)CC2)n1 [Example 37, N-(4-(4-(2-(4,4-difluorocyclohex-1-en-1-yl)-6-methylpyrimidin-4-yl)-1H-1,2,3-triazol-1-yl)-3-(6-azaspiro[2.5]octan-6-yl)phenyl)-2-hydroxyethane-1-sulfonamide]
5.88	6.38	5.80	Cc1cc(-c2cn(-c3ccc(NS(=O)(=O)CCO)cc3N3CCC4(CC3)CC4)nn2)cc(-c2cnn(C)c2)n1 [Example 39, 2-hydroxy-N-(4-(4-(2-methyl-6-(1-methyl-1H-pyrazol-4-yl)pyridin-4-yl)-1H-1,2,3-triazol-1-yl)-3-(6-azaspiro[2.5]octan-6-yl)phenyl)ethane-1-sulfonamide]

Further lines, the molecule ahead of its results:

SMILES	pIC50 (OVCAR3 cells)	pIC50 [1]	pIC50 (HT29 cells)
COc1cc(-c2nnc(-c3ccc(NS(=O)(=O)CCO)cc3N3CCC4(CC3)CC4)o2)cc(N2CCC(F)(F)CC2)n1 [Example 22, N-(4-(5-(2-(4,4-difluoropiperidin-1-yl)-6-methoxypyridin-4-yl)-1,3,4-oxadiazol-2-yl)-3-(6-azaspiro[2.5]octan-6-yl)phenyl)-2-hydroxyethane-1-sulfonamide]	7.47	7.34	7.64
Cc1cc(-c2nnc(-c3ccc(NS(=O)(=O)CCO)cc3N3CCC4(CC3)CC4)o2)c(F)c(N2CCC(F)(F)CC2)n1 [Example 23, N-(4-(5-(2-(4,4-difluoropiperidin-1-yl)-3-fluoro-6-methylpyridin-4-yl)-1,3,4-oxadiazol-2-yl)-3-(6-azaspiro[2.5]octan-6-yl)phenyl)-2-hydroxyethane-1-sulfonamide]	6.94	6.82	6.93
Cc1cc(N2CCC(F)(F)CC2)nc(-c2nnc(-c3ccc(NS(=O)(=O)CCO)cc3N3CCC4(CC3)CC4)o2)c1Cl [Example 26, N-(4-(5-(3-chloro-6-(4,4-difluoropiperidin-1-yl)-4-methylpyridin-2-yl)-1,3,4-oxadiazol-2-yl)-3-(6-azaspiro[2.5]octan-6-yl)phenyl)-2-hydroxyethane-1-sulfonamide]	6.12	6.54	5.90
Cc1cc(-c2nnc(-c3ccc(N4CCCS4(=O)=O)cc3N3CCC4(CC3)CC4)o2)nc(N2CCC(F)(F)CC2)n1 [Example 28, 2-(4-(5-(2-(4,4-difluoropiperidin-1-yl)-6-methylpyrimidin-4-yl)-1,3,4-oxadiazol-2-yl)-3-(6-azaspiro[2.5]octan-6-yl)phenyl)isothiazolidine 1,1-dioxide]	6.93	6.53	6.72
O=S(=O)(CCO)Nc1ccc(-c2nnc(-c3cc4cccnc4c(N4CCC(F)(F)CC4)n3)o2)c(N2CCC3(CC2)CC3)c1 [Example 29, N-(4-(5-(8-(4,4-difluoropiperidin-1-yl)-1,7-naphthyridin-6-yl)-1,3,4-oxadiazol-2-yl)-3-(6-azaspiro[2.5]octan-6-yl)phenyl)-2-hydroxyethanesulfonamide]	7.43	7.32	7.35
O=S(=O)(CCO)Nc1ccc(-c2nnc(-c3cc4cccnc4c(N4CCC(F)(F)CC4)c3F)o2)c(N2CCC3(CC2)CC3)c1 [Example 30, N-(4-(5-(8-(4,4-difluoropiperidin-1-yl)-7-fluoroquinolin-6-yl)-1,3,4-oxadiazol-2-yl)-3-(6-azaspiro[2.5]octan-6-yl)phenyl)-2-hydroxyethane-1-sulfonamide]	7.26	6.59	7.21
O=S(=O)(CCO)Nc1ccc(-c2nnc(-c3cc4cccn4c(N4CCC(F)(F)CC4)n3)o2)c(N2CCC3(CC2)CC3)c1 [Example 32]	6.73	6.95	6.60
O=S(=O)(CCO)Nc1ccc(-c2nnc(-c3cc4ccoc4c(N4CCC(F)(F)CC4)n3)o2)c(N2CCC3(CC2)CC3)c1 [Example 33]	7.47	7.21	7.19

— patent US20250304551A1 (SHANGHAI APEIRON THERAPEUTICS COMPANY LIMITED, priority 2022, published 2025)
